Assays:
[1] = tested on: main human CYP molecular species (CYP1A2, 2B6, 2C8, 2C9, 2C19, 2D6 and 3A4); assay: CYP inhibition test in mixed human liver microsomes; assay type: in vitro ADME
Procedure: Commercially available mixed human liver microsomes were used for the typical substrate metabolism reaction of the main human CYP molecular species (CYP1A2, 2B6, 2C8, 2C9, 2C19, 2D6 and 3A4). The reaction conditions were as follows: substrate, CYP1A2: 30 μM of phenacetin; CYP2C9: diclofenac 10 μM; CYP2C19: 35 μM of S-methphenytoin; CYP3A4: midazolam 5 μM, testosterone 80 μM; CYP2D6: bufuralol, 10 μM; CYP2C8: 10 μM of paclitaxel; and CYP2B6: bupropion 70 μM; reaction time, CYP1A2, 2C9, 2D6, 2C8, 2B6: 10 min; CYP2C19: 45 min; and CYP3A4: 5 min. Reaction temperature, 37° C. Inhibitor (positive control), CYP1A2: α-naphthoflavone; CYP2C9: sulfaphenazole; CYP2C19: omeprazole; CYP3A4: ketoconazole; CYP2D6: quinidine; CYP2C8: nicardipine; and CYP2B6: clopidogrel.
A series of dilutions for the test compound and the positive control were prepared in a 96-well plate, and 8 μL of 10 mM test compound was transferred to 12 μL of ACN. 1:3 serial dilution was performed in a DMSO:ACN mixture (v/v: 40:60). HLM was added to assay wells, and then the test compound or a reference inhibitor solution diluted with serum was added to the designated wells on ice. After the 96-well plate and NADPH solution was pre-incubated at 37° C. for 5 min, 15 μL of the pre-warmed 8 mM NADPH solution was added to the assay plate to start the reaction. […]

Hela cells = assay: Proliferation inhibition based on Hela cells (OSM stimulation, CTG); assay type: cell-based; conditions: Homo sapiens, OSM stimulation, read-out: IC50 (uM), proliferation inhibitory activity on Hela cells
Procedure: 1. Cell plating: cultured cells were collected and counted for viable cells with Vi-Cell XR cell counter. The cell suspension was adjusted to an appropriate concentration with the medium and then added to a 96-well cell culture plate. 50 μL-100 μL of the cell suspension was added to each well of the 96-well cell culture plate. The cell plating density depended on the growth rate of the cells. The cells were cultured in corresponding incubators.
2. Drug Treatment and OSM Stimulation
Firstly, a series of test compound concentration (work solution-1) was prepared using DMSO with 3× gradient dilution, and then it was subjected to fold dilution with RPMI1640+10% FBS to obtain a work solution-2; Cisplatin's work solution-2 was prepared with RPMI1640+10% FBS, and then 1-10 μL solution taken from the work solution-2 was added to the prepared cell wells containing medium. After incubation, 1-10 μL of OSM medium was added to each well and continued to culture. An appropriate CTG solution was added to each well. The mixture was shaken and mixed for 1-5 min and then a luminescence signal was determined with an Envision2104 plate reader.
Cell Survival Rate Calculation
T is the luminescence reading of a drug treatment group, and C is the average luminescence reading of a solvent control group.

rat CIA model = assay: Hindfoot foot volume in rat CIA model; assay type: in vivo, Lewis rats; conditions: CIA rats; for Foot volume (ml)/Day: hindfoot
Procedure: (§1) Lewis rats (female, 10-12 weeks old) were obtained from Beijing Vital River Laboratory Animal Technology Co., Ltd. The rats were on a light and dark alternation for 12 h, and the environment was kept at a temperature of 23±2° C. and a humidity of 40-70%.
(§2) Type II collagen solution (2 mg/mL) was prepared with 0.05 M acetic acid solution to allow to be fully dissolved, and placed overnight in the dark at 4° C. During the test, 2 mg/mL type II collagen (C II) solution and 4 mg/mL complete Freund's adjuvant (CFA) solution were mixed in equal volumes under ice bath conditions to fully emulsify. On day 0, an emulsion prepared by mixing equal volumes of C II (2 mg/mL) and CFA (4 mg/mL) was injected intracutaneously into the base of the tail of experimental rats for primary immunization, and on day 7, secondary booster immunization was performed.
(§3) The therapeutic effect of the test compound was tested in a rat CIA model. The rats were randomly divided into groups with 8 animals in each group. All animals were immunized on day 0 and boosted on day 7.
(§4) Therefore, the differences in body weight and foot volume after the onset of arthritis compared with the negative group, respectively, can be used to evaluate the therapeutic effect in the rat model. The experimental data were expressed as Mean±SEM; the data between the two groups was tested by unpaired t-test and p<0.05 was considered as a significant difference.

[2] = 2 mg/kg oral gavage once daily for 2 w, day 0
[3] = 2 mg/kg oral gavage once daily for 2 w, day 8
[4] = 2 mg/kg oral gavage once daily for 2 w, day 11
[5] = 2 mg/kg oral gavage once daily for 2 w, day 14
[6] = 2 mg/kg oral gavage once daily for 2 w, day 17
[7] = 2 mg/kg oral gavage once daily for 2 w, day 21
[8] = 2 mg/kg oral gavage once daily for 2 w, day 24
[9] = 2 mg/kg oral gavage once daily for 2 w, day 28
[10] = 3 mg/kg oral gavage once daily for 2 w, day 0
[11] = 3 mg/kg oral gavage once daily for 2 w, day 8
[12] = 3 mg/kg oral gavage once daily for 2 w, day 11
[13] = 3 mg/kg oral gavage once daily for 2 w, day 14
[14] = 3 mg/kg oral gavage once daily for 2 w, day 17
[15] = 3 mg/kg oral gavage once daily for 2 w, day 21
[16] = 3 mg/kg oral gavage once daily for 2 w, day 24
[17] = 3 mg/kg oral gavage once daily for 2 w, day 28
[18] = 5 mg/kg oral gavage once daily for 2 w, day 0
[19] = 5 mg/kg oral gavage once daily for 2 w, day 11
[20] = 5 mg/kg oral gavage once daily for 2 w, day 14
[21] = 5 mg/kg oral gavage once daily for 2 w, day 17
[22] = 5 mg/kg oral gavage once daily for 2 w, day 21
[23] = 5 mg/kg oral gavage once daily for 2 w, day 24
[24] = 5 mg/kg oral gavage once daily for 2 w, day 28
[25] = 10 mg/kg oral gavage once daily for 2 w, day 0
[26] = 10 mg/kg oral gavage once daily for 2 w, day 8
[27] = 10 mg/kg oral gavage once daily for 2 w, day 11
[28] = 10 mg/kg oral gavage once daily for 2 w, day 14
[29] = 10 mg/kg oral gavage once daily for 2 w, day 17
[30] = 10 mg/kg oral gavage once daily for 2 w, day 21
[31] = 10 mg/kg oral gavage once daily for 2 w, day 24
[32] = 10 mg/kg oral gavage once daily for 2 w, day 28

Procedure for Body weight of CIA rats: as §1, §2, §3, §4

For `O=C(Nc1cn2c(-c3ccc(CN4CCS(=O)(=O)CC4)s3)cccc2n1)[C@H]1C[C@@H]1F` (relative stereo) [EXP-3, trans-N-[5-[5-[(1,1-dioxo-1,4-thiazin-4-yl)methyl]-2-thiophene]imidazo[1,2-a]pyridin-2-yl]-2-fluoro-cyclopropylcarboxamide], the CYP inhibition [1] was “no inhibitory effect”, the IC50 (Hela cells) was less than 5 µM and the “foot volume, relative potency in words” value (rat CIA model; 10 mg/kg) was “the most potent and significantly stronger than filgotinib 10 mg/kg”. The “Foot volume (ml)/Day” value (rat CIA model; [2]) was 2.603 ± 0.021 mL, the “Foot volume (ml)/Day” value (rat CIA model; [3]) was 2.590 ± 0.027 mL and the “Foot volume (ml)/Day” value (rat CIA model; [4]) was 2.634 ± 0.059 mL. For the same compound, the “Foot volume (ml)/Day” value (rat CIA model; [5]) was 3.648 ± 0.303 mL, the “Foot volume (ml)/Day” value (rat CIA model; [6]) was 4.465 ± 0.261 mL and the “Foot volume (ml)/Day” value (rat CIA model; [7]) was 4.600 mL. For the same compound, the “Foot volume (ml)/Day” value (rat CIA model; [8]) was 4.487 mL, the “Foot volume (ml)/Day” value (rat CIA model; [9]) was 4.181 mL and the “Foot volume (ml)/Day” value (rat CIA model; [10]) was 2.633 ± 0.017 mL. The “Foot volume (ml)/Day” value (rat CIA model; [11]) was 2.624 ± 0.010 mL, the “Foot volume (ml)/Day” value (rat CIA model; [12]) was 2.706 ± 0.037 mL and the “Foot volume (ml)/Day” value (rat CIA model; [13]) was 3.724 ± 0.239 mL. The “Foot volume (ml)/Day” value (rat CIA model; [14]) was 4.759 ± 0.291 mL, the “Foot volume (ml)/Day” value (rat CIA model; [15]) was 4.863 mL and the “Foot volume (ml)/Day” value (rat CIA model; [16]) was 4.754 mL. For the same compound, the “Foot volume (ml)/Day” value (rat CIA model; [17]) was 4.299 mL, the “Foot volume (ml)/Day” value (rat CIA model; [18]) was 2.631 ± 0.017 mL and the “Foot volume (ml)/Day” value (rat CIA model; [19]) was 2.703 ± 0.061 mL. For the same compound, the “Foot volume (ml)/Day” value (rat CIA model; [20]) was 3.684 ± 0.315 mL, the “Foot volume (ml)/Day” value (rat CIA model; [21]) was 4.516 ± 0.302 mL and the “Foot volume (ml)/Day” value (rat CIA model; [22]) was 4.724 mL. For the same compound, the “Foot volume (ml)/Day” value (rat CIA model; [23]) was 4.582 mL, the “Foot volume (ml)/Day” value (rat CIA model; [24]) was 4.176 mL and the “Foot volume (ml)/Day” value (rat CIA model; [25]) was 2.645 ± 0.017 mL. The “Foot volume (ml)/Day” value (rat CIA model; [26]) was 2.613 ± 0.017 mL, the “Foot volume (ml)/Day” value (rat CIA model; [27]) was 2.647 ± 0.075 mL and the “Foot volume (ml)/Day” value (rat CIA model; [28]) was 3.652 ± 0.287 mL. The “Foot volume (ml)/Day” value (rat CIA model; [29]) was 4.249 ± 0.342 mL, the “Foot volume (ml)/Day” value (rat CIA model; [30]) was 4.331 mL and the “Foot volume (ml)/Day” value (rat CIA model; [31]) was 4.125 mL. For the same compound, the “Foot volume (ml)/Day” value (rat CIA model; [32]) was 3.826 mL, the “Body weight (g)/Day” value (Body weight of CIA rats; [2]) was 172.3 ± 1.9 g and the “Body weight (g)/Day” value (Body weight of CIA rats; [3]) was 172.6 ± 0.7 g. For the same compound, the “Body weight (g)/Day” value (Body weight of CIA rats; [4]) was 172.3 ± 1.8 g, the “Body weight (g)/Day” value (Body weight of CIA rats; [5]) was 170.3 ± 1 g and the “Body weight (g)/Day” value (Body weight of CIA rats; [6]) was 169.1 ± 1.2 g. The “Body weight (g)/Day” value (Body weight of CIA rats; [7]) was 164.9 ± 1.8 g, the “Body weight (g)/Day” value (Body weight of CIA rats; [8]) was 166.4 ± 2.6 g and the “Body weight (g)/Day” value (Body weight of CIA rats; [9]) was 166.9 ± 2.7 g. For the same compound, the “Body weight (g)/Day” value (Body weight of CIA rats; [10]) was 174.5 ± 1.3 g, the “Body weight (g)/Day” value (Body weight of CIA rats; [11]) was 172.4 ± 2.7 g and the “Body weight (g)/Day” value (Body weight of CIA rats; [12]) was 170.8 ± 3.8 g. The “Body weight (g)/Day” value (Body weight of CIA rats; [13]) was 171.6 ± 2.9 g, the “Body weight (g)/Day” value (Body weight of CIA rats; [14]) was 170.1 ± 2.7 g and the “Body weight (g)/Day” value (Body weight of CIA rats; [15]) was 166.8 ± 1.8 g. For the same compound, the “Body weight (g)/Day” value (Body weight of CIA rats; [16]) was 165 ± 1.8 g, the “Body weight (g)/Day” value (Body weight of CIA rats; [17]) was 169.3 ± 2 g and the “Body weight (g)/Day” value (Body weight of CIA rats; [18]) was 171.8 ± 2.3 g. For the same compound, the “Body weight (g)/Day” value (Body weight of CIA rats; 5 mg/kg oral gavage once daily for 2 w, day 8) was 171.1 ± 3.1 g, the “Body weight (g)/Day” value (Body weight of CIA rats; [19]) was 170.9 ± 4.5 g and the “Body weight (g)/Day” value (Body weight of CIA rats; [20]) was 171.4 ± 2.4 g. The “Body weight (g)/Day” value (Body weight of CIA rats; [21]) was 172.8 ± 2.2 g, the “Body weight (g)/Day” value (Body weight of CIA rats; [22]) was 166.5 ± 1.9 g and the “Body weight (g)/Day” value (Body weight of CIA rats; [23]) was 165.3 ± 1.7 g. The “Body weight (g)/Day” value (Body weight of CIA rats; [24]) was 169.1 ± 2.1 g, the “body weight course, in words” value (Body weight of CIA rats; 10 mg/kg) was “increased slightly on days 11-17, but then fell back” and the “Body weight (g)/Day” value (Body weight of CIA rats; [25]) was 173.9 ± 1.8 g. For the same compound, the “Body weight (g)/Day” value (Body weight of CIA rats; [26]) was 175.3 ± 2.1 g, the “Body weight (g)/Day” value (Body weight of CIA rats; [27]) was 175.9 ± 2.8 g and the “Body weight (g)/Day” value (Body weight of CIA rats; [28]) was 175.3 ± 2.2 g. The “Body weight (g)/Day” value (Body weight of CIA rats; [29]) was 176.4 ± 3.3 g, the “Body weight (g)/Day” value (Body weight of CIA rats; [30]) was 171.8 ± 2.9 g and the “Body weight (g)/Day” value (Body weight of CIA rats; [31]) was 166.3 ± 2.9 g. For the same compound, the “Body weight (g)/Day” value (Body weight of CIA rats; [32]) was 170.4 ± 3.1 g.
Work on `O=C(Nc1nc2cccc(-c3ccc(CN4CCS(=O)(=O)CC4)s3)n2n1)C1CC1` [EXP-1] yielded an IC50 (Hela cells) of less than 5 µM.
